Data from patent US6350741B1, “Inhibitors of interleukin-1β converting enzyme” (Vertex Pharmaceutical, Inc., priority 1996, dated 2002).

What was measured:
ICE = molecular target: T1, ICE (Homo sapiens, UniProt P29466); test: Enzyme assay with UV-visible substrate (ICE inhibition); format: biochemical; details: Succinyl-Tyr-Val-Ala-Asp-p-Nitroanilide substrate
T1 sequence (P29466 120-297 limits assumed): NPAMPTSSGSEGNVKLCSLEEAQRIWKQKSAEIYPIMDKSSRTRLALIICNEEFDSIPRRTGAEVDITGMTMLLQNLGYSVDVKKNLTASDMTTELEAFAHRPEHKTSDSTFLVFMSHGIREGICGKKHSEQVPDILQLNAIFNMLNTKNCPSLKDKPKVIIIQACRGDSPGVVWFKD
T1 sequence (P29466 317-404 limits assumed): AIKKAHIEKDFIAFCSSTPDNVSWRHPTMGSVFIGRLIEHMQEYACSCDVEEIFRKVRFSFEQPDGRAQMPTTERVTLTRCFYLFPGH
Procedure: 1. Enzyme Assay with UV-visible Substrate
This assay is run using an Succinyl-Tyr-Val-Ala-Asp-p-Nitroanilide substrate. Synthesis of analogous substrates is described by L. A. Reiter (Int. J. Peptide Protein Res., 43, pp. 87-96 (1994)). The assay mixture contains:
65 μl buffer (10 mM Tris, 1 mM DTT, 0.1% CHAPS @ pH 8.1)
10 μl ICE (50 nM final concentration to give a rate of ˜1 mOD/min)
5 μl DMSO/Inhibitor mixture
20 μl 400 μM Substrate (80 μM final concentration)
100 μl total reaction volume
The visible ICE assay is run in a 96-well microtiter plate. Buffer, ICE and DMSO (if inhibitor is present) are added to the wells in the order listed. The components are left to incubate at room temperature for 15 minutes starting at the time that all components are present in all wells. The microtiter plate reader is set to incubate at 37° C. After the 15 minute incubation, substrate is added directly to the wells and the reaction is monitored by following the release of the chromophore (pNA) at 405-603 nm at 37° C. for 20 minutes. A linear fit of the data is performed and the rate is calculated in mOD/min. DMSO is only present during experiments involving inhibitors, buffer is used to make up the volume to 100 μl in the other experiments.
For determination of enzyme inhibition constants (Ki) or the mode of inhibition (competitive, uncompetitive or noncompetitive), the rate data determined in the enzyme assays at varying inhibitor concentrations are computer-fit to standard enzyme kinetic equations (see I. H. Segel, Enzyme Kinetics, Wiley-Interscience, 1975).

[1] = tested on: IL-1β production in human whole blood; test: Whole blood assay for IL-1β production; format: cell-based; details: LPS-stimulated human whole blood, IL-1β by ELISA
Procedure: Whole Blood Assay for IL-1β Production
The whole blood assay is a simple method for measuring the production of IL-1β (or other cytokines) and the activity of potential inhibitors. The complexity of this assay system, with its full complement of lymphoid and inflammatory cell types, spectrum of plasma proteins and red blood cells is an ideal in vitro representation of human in vivo physiologic conditions.
Set incubator or water bath at 30° C. Aliquot 0.25 ml of blood into 1.5 ml eppendorf tubes. Note: be sure to invert the whole blood sample tubes after every two aliquots. Differences in replicates may result if the cells sediment and are not uniformly suspended. Use of a positive displacement pipette will also minimize differences between replicate aliquots.
Prepare drug dilutions in sterile pyrogen-free saline by serial dilution. A dilution series which brackets the apparent Ki for a test compound determined in an ICE inhibition assay is generally used for the primary compound screen. For extremely hydrophobic compounds, prepare compound dilutions in fresh plasma obtained from the same blood donor or in PBS-containing 5% DMSO to enhance solubility.
Add 25 μl test compound dilution or vehicle control and gently mix the sample. Then add 5.0 μl LPS solution (250 ng/ml stocked prepared fresh: 5.0 ng/ml final concentration LPS), and mix again. Incubate the tubes at […] in a water bath for 16-18 hr with occasional mixing. Alternatively, the tubes can be placed in a rotator set at 4 rpm for the same incubation period. This assay should be set up in duplicate or triplicate with the following controls: negative control—no LPS; positive control—no test inhibitor; vehicle control—the highest concentration of DMSO or compound solvent used in the experiment. Additional saline is added to all control tubes to normalize volumes for both control and experimental whole blood test samples.
After the incubation period, whole blood samples are centrifuged for 10 minutes at ˜2000 rpm in the microfuge, plasma is transferred to a fresh microfuge tube and centrifuged at 1000×g to pellet residual platelets if necessary. Plasma samples may be stored frozen at −70° C. prior to assay for cytokine levels by ELISA.
R & D Systems (614 McKinley Place N.E. Minneapolis, Minn. 55413) Quantikine kits may be used for measurement of IL-1β and TNF-α. The assays are performed according to the manufacturer's directions. IL-1β levels of ˜1-5 ng/ml in positive controls among a range of individuals may be observed. A 1:200 dilution of plasma for all samples is usually sufficient for experiments for ELISA results to fall on the linear range of the ELISA standard curves. It may be necessary to optimize standard dilutions if you observe differences in the whole blood assay. Nerad, J. L. et al., J. Leukocyte Biol., 52, pp. 687-692 (1992).

[2] = tested on: mature IL-1β in human PBMC; test: PBMC cell assay (IL-1β assay with human peripheral blood mononuclear cells); format: cell-based; details: LPS-stimulated human PBMC, mature IL-1β by ELISA
Text: IL-1β Assay with a Mixed Population of Human Peripheral Blood Mononuclear Cells (PBMC) or Enriched Adherent Mononuclear Cells
Processing of pre-IL-1β by ICE can be measured in cell culture using a variety of cell sources. Human PBMC obtained from healthy donors provides a mixed population of lymphocyte subtypes and mononuclear cells that produce a spectrum of interleukins and cytokines in response to many classes of physiological stimulators. Adherent mononuclear cells from PBMC provides an enriched source of normal monocytes for selective studies of cytokine production by activated cells.
An initial dilution series of test compound in DMSO or ethanol is prepared, with a subsequent dilution into RPMI-10% FBS media (containing 2 mM L-glutamine, 10 mM HEPES, 50 U and 50 ug/ml pen/strep) respectively to yield drugs at 4×the final test concentration containing 0.4% DMSO or 0.4% ethanol. The final concentration of DMSO is 0.1% for all drug dilutions. A concentration titration which brackets the apparent Ki for a test compound determined in an ICE inhibition assay is generally used for the primary compound screen.
Generally 5-6 compound dilutions are tested and the cellular component of the assay is performed in duplicate, with duplicate ELISA determinations on each cell culture supernatant.
Buffy coat cells isolated from one pint human blood (yielding 40-45 ml final volume plasma plus cells) are diluted with media to 80 ml and LeukoPREP separation tubes (Becton Dickinson) are each overlaid with 10 ml of cell suspension. After 15 min centrifugation at 1500-1800×g, the plasma/media layer is aspirated and then the mononuclear cell layer is collected with a Pasteur pipette and transferred to a 15 ml conical centrifuge tube (Corning). Media is added to bring the volume to 15 ml, gently mix the cells by inversion and centrifuge at 300×g for 15 min. The PBMC pellet is resuspended in a small volume of media, the cells are counted and adjusted to 6×10^6 cells/ml.
For the cellular assay, 1.0 ml of the cell suspension is added to each well of a 24-well flat bottom tissue culture plate (Corning), 0.5 ml test compound dilution and 0.5 ml LPS solution (Sigma #L-3012; 20 ng/ml solution prepared in complete RPMI media; final LPS concentration 5 ng/ml). The 0.5 ml additions of test compound and LPS are usually sufficient to mix the contents of the wells. Three control mixtures are run per experiment, with either LPS alone, solvent vehicle control, and/or additional media to adjust the final culture volume to 2.0 ml. The cell cultures are incubated for 16-18 hr at 37° C. in the presence of 5% CO2.
At the end of the incubation period, cells are harvested and transferred to 15 ml conical centrifuge tubes. After centrifugation for 10 min at 200×g, supernatants are harvested and transferred to 1.5 ml Eppendorf tubes. It may be noted that the cell pellet may be utilized for a biochemical evaluation of pre-IL-1β and/or mature IL-1β content in cytosol extracts by Western blotting or ELISA with pre-IL-1β specific antisera.
PBMC are isolated and prepared as described above. Media (1.0 ml) is first added to wells followed by 0.5 ml of the PBMC suspension. After a one hour incubation, plates are gently shaken and nonadherent cells aspirated from each well. Wells are then gently washed three times with 1.0 ml of media and final resuspended in 1.0 ml media. The enrichment for adherent cells generally yields 2.5-3.0×10^5 cells per well. […]

IL-1β = test: LPS-induced IL-1β production in mice; format: in vivo, mouse; details: PO @ 100 mg/kg, compound given 1 hour relative to LPS challenge
Procedure: In vivo Acute Assay for Efficacy as Anti-inflammatory Agent
LPS-Induced IL-1β Production
Efficacy is evaluated in CD1 mice (n is 6 per condition, for example) challenged with LPS (20 mg/kg IP). The test compounds are prepared in olive oil:DMSO:ethanol (90:5:5) and administered by IP injection one hour after LPS. Blood is collected seven hours after LPS challenge. Serum IL-1β levels are measured by ELISA.
Compounds may also be administered by oral gavage to assess absorption.
We obtained inhibition data in Table 5 using the methods described in Example 12. Efficacy for Prodrugs in LPS-Induced IL-1β Production in Mice. Time of compound administration relative to time of LPS challenge was 1 hour. Dose of compound was PO @ 100 mg/kg.

[3] = In vivo bioavailability determination (oral dosing to rats); details: rat
Procedure: In vivo Bioavailability Determination
The drugs (10-100 mg/kg) were dosed orally to rats (10 mL/kg) in ethanol/PEG/water, β-cyclodextrin, labrosol/water or cremophor/water. Blood samples were drawn from the carotid artery at 0.25, 0.50, 1, 1.5, 2, 3, 4, 6, and 8 hours after dosing, centrifuged to separate plasma and stored at −70° C. until analyzed. Aldehyde concentrations were determined using HPLC/MS. Pharmacokinetic analysis of data was performed by non-linear regression using RStrip (MicroMath Software, UT). Drug availability values may be determined as follows: (AUC of drug after oral prodrug dosing/AUC of drug after i.v. dosing of drug)×(dose i.v./dose p.o.)×100%.

Row | Compound | Ki (ICE) | IC50 [1] | IC50 [2] | % Inhibition of IL-1β (IL-1β) | blood levels of drug when dosed orally ([3]; oral prodrug dosing) | Cmax ([3]; oral, dose 50 mg/kg, aldehyde (drug) concentration after prodrug dosing)
1 | (3S)-2,5-Dioxo-3-(Isoquinolin-3-oyl)amino-2,3,4,5-tetrahyo-1H-1-benzazepine-N-((2RS, 3S)-2-benzyloxy-5-oxo-tetrahydrofuran-3-yl)-1-acetamide [Compound 16b] |  |  |  | 53% | significant blood levels of drug | 6.1 µg/mL
2 | O=C[C@H](CC(=O)O)NC(=O)CN1C(=O)[C@@H](NC(=O)c2nccc3ccccc23)COc2ccccc21 [Compound 6a] | 22 nM | > 20 µM | 1000 nM |  |  | 
3 | (3S)-3-(Isoquinolin-1-oyl)amino-4-oxo-2,3,4,5-tetrahydo-5H-1,5-benzothiazepine-N-((2RS, 3S)-2-benzyloxy-5-oxo-tetrahydrofuran-3-yl)-5-acetamide [Compound 10b] |  |  |  | 74% |  | 
4 | (3S)-3-(Isoquinolin-1-oyl)amino-4-oxo-2,3,4,5-tetrahydro-5H-1,5-benzoxazepine-N-[(2RS, 3S)-2-benzyloxy-5-oxo-tetrahydrofuran-3-yl]-5-acetamide [Compound 5a] |  |  |  | 58% |  | 

The next lines start with results.

Row | Ki (ICE) | IC50 [1] | Compound | IC50 [2] | % Inhibition of IL-1β (IL-1β) | blood levels of drug when dosed orally ([3]; oral prodrug dosing) | Cmax ([3]; oral, dose 50 mg/kg, aldehyde (drug) concentration after prodrug dosing)
5 | 12 nM | 3.2 µM | Cc1cc(C(=O)N[C@H]2CC(=O)c3ccccc3N(CC(=O)N[C@H](C=O)CC(=O)O)C2=O)cc(C)c1O [Compound 17a, (3S)-3-[(3S)-2,5-Dioxo-3-(3,5-dimethyl-4-hydroxybenzoyl)amino-2,3,4,5-tetrahydro-1H-1-benzazepine-1-acetylamino]-4-oxo-butyric acid] |  |  |  | 
6 | 45 nM | > 20 µM | O=C[C@H](CC(=O)O)NC(=O)CN1C(=O)[C@@H](NC(=O)c2nccc3ccccc23)CC(=O)c2ccccc21 [Compound 17b, (3S)-3-[(3S)-2,5-Dioxo-3-(isoquinolin-1-oyl)amino-2,3,4,5-tetrahydro-1H-1-benzazopine-1-acetylamino]-4-oxo-butyric acid.] | 1720 nM |  |  | 
7 | 140 nM | 9.5 µM | O=C[C@H](CC(=O)O)NC(=O)CN1C(=O)[C@@H](NC(=O)c2nccc3ccccc23)CS(=O)(=O)c2ccccc21 [Compound 19a] | 770 nM |  |  | 
8 | 7.5 nM | 8.8 µM | Cc1cc(C(=O)N[C@H]2CSc3ccccc3N(CC(=O)N[C@H](C=O)CC(=O)O)C2=O)cc(C)c1O [Compound 11a, (3S)-3-[(3S)-3-(3,5-Dimethyl-4-hydroxybenzoyl)amino-4-oxo-2,3,4,5-tetrahydro-5H-1,5-benzothiazepine-5-acetylamino]-4-oxo-butyric acid] |  |  |  | 
9 | 14 nM | 19 µM | O=C[C@H](CC(=O)O)NC(=O)CN1C(=O)[C@@H](NC(=O)c2nccc3ccccc23)CSc2ccccc21 [Compound 11b] | 800 nM |  |  | 
10 | 20 nM | > 20 µM | O=C[C@H](CC(=O)O)NC(=O)CN1C(=O)[C@@H](NC(=O)c2c[nH]c3ccccc23)COc2ccccc21 [Compound 6c] | 650 nM |  |  | 
